# According to patent US20030207813A1, “Retroviral protease inhibitor combinations” (priority 1995, published 2003):
# Where two headings read alike, the source gives them in different places.
# Key:
# [1] = test system: HIV-1 strain SF-162; experiment: Acute infectivity assay in PHA-activated donor lymphocytes, isolate SF162; format: cell-based; conditions: Human immunodeficiency virus 1, Lymphocyte
# Protocol: (§1) Approximately 3×10^7 cells are activated for 48 hours with about 3-5 μg/ml PHA in RPMI continuing 10% fetal bovine serum and IL-2 (10 U/ml). Quantitated virus stocks are added to the activated lymphocyte suspension at a multiplicity of infection of about 0.001-0.01. The cell-virus suspension is incubated at 37° C. for 2 hours to allow virus absorption. The residual virus inoculum is removed by centrifugation and the cells are resuspended in RPMI containing 10% FBS and 10 U/ml IL-2. These infected cells are added to the test-article diluted in complete tissue culture medium from a stock (10 mg/ml) in DMSO in 96 well microtiter plates to give about 5×10^5 cells per well per 200 μl. Infected, untreated cells and cells treated with DMSO alone (0.1%) or either AZT or DDI were used as controls. The cultures were examined for syncytia formation on days 7 and 11 post-infection or the supernants tested for reverse transcriptase activity or p24 antigen.
# (§2) RF represents the HIV-1 strain HIV-LRF and RFR represents a mixture of resistant strains obtained by selection of RF against the compound of Example 1. RFR comprises a mixture of viral strains having protease genotypes of G48V (14/40 clones); G48V, V82A (18/40 clones); G48V, L90S (2/40 clones); G48V, 154T, V82A (1/40 clones); G48M (1/40 clones); G48V, Q61H (1/40 clones); V13I, G48V (1/40 clones); G48V, F53L, V82A (1/40 clones); and G48V, V82A, C95Y (1/40 clones). RFR2 represents a mixture of resistant strains obtained by cloning RFR by three rounds of growth at limiting dilution. RFR2 comprises a mixture of viral strains having protease genotypes of G48V, V82A (13/15 clones); G17E, G48V, V82A (1/15 clones); and G48V, V82A, N37D, N88D (1/15 clones). RFRR represents a mixture of resistant strains obtained by selection of RF against the compounds of Examples 1 and 2 and then cloning by three rounds of growth at limiting dilution. RFRR comprises a mixture of viral strains having protease genotypes of G48V, 154T, L63P, V82A (7/9 clones); G48V, 154T, L63P, V82A, N88S (1/9 clones); and G48V, 154T, L63P, G73M, V82A (1/9 clones). SF162 represents the HIV-1 strain SF-162 and SF162R represents a mixture of resistant strains obtained by selection of SF162 against the compound of Example 1. SF162R comprises a mixture of viral strains having protease genotypes of M461, F53L, L63P, A71V, N88D (2/3 clones); and M46I, F53L, L63P, A71V, N88D, Q92R (1/3 clones). 89-959 represents the HIV-1 strain 89-959 and 89-959R represents a mixture of resistant strains obtained by selection of 89-959 against the compound of Example 2. 89-959R comprises a mixture of viral strains having protease genotypes of N88S (4/5 clones); and D25N, T26A, D30N, D37N, R41K, G73D, R87K, N88S (1/4 clones). NL4 represents the HIV-1 strain HIV-1NL4-3. NL4(G48V) represents a strain having a synthetically generated site-directed mutation in the protease from glycine to valine at amino acid position number 48. NL4(I84V) represents a strain having a synthetically generated site-directed mutation in the protease from isoleucine to valine at amino acid position number 84. NL4(R8Q,M46I) represents a strain having synthetically generated site-directed mutations in the protease from arginine to glutamine at amino acid position number 8 and methionine to isoleucine at amino acid position number 46. NL4(P22-538) represents a mixture of resistant strains obtained by selection of HIV-1NL4-3 against the compound of Example 10 after 22 passages comprising protease genotypes M46I, L63P, A71V, V82F, I84V (4/10); M46I, L63P, V82F, I84V (3/10); and M46I, A71V, V82F, I84V (3/10). NL4(P37-538) represents resistant strains obtained by selection of HIV-1NL4-3 against the compound of Example 10 after 37 passages comprising protease genotype M46I, L63P, A71V, 184A. NL4(538/524) represents resistant strains obtained by selection of NL4(P22-538) against the compound of Example 5 after 24 passages comprising protease genotype M46I, L63P, A71V, 184A. […]
# [2] = test system: 89-959R (resistant strains selected from 89-959 against Example 2); experiment: Acute infectivity assay in PHA-activated donor lymphocytes, resistant isolate 89-959R; format: cell-based, HIV-1; conditions: Human immunodeficiency virus 1, Lymphocyte, read-out: Virus Isolate (EC50 ng/mL) 89-959R
# Protocol: as §1, §2
# [3] = Table 1, read-out: Virus Isolate (EC50 ng/mL) SF162
# [4] = Table 2, read-out: Virus Isolate (EC50 ng/mL) SF162
Compound,"EC50 [1, 3]","EC50 [1, 4]","EC50 ([2]; Table 3, (experiment ‡))","EC50 ([2]; Table 3, experiments † and §)"
"CC(C)CN(C[C@@H](O)[C@H](Cc1ccccc1)NC(=O)[C@H](CC(N)=O)NC(=O)c1ccc2ccccc2n1)C(=O)NC(C)(C)C (relative stereo) [Example 1, [1S-[1R*(R*),2S*]]-N^1-[3-[[[(1,1-dimethylethyl)amino]carbonyl])2-methylpropyl)amino]-2-hydroxy-1-(phenylmethyl)propyl]-2-[(2-quinolinylcarbonyl)amino]-butanediamide]",31 ng/mL,2 ng/mL,37 ng/mL,5 ng/mL
"CC(C)CCN(C[C@@H](O)[C@H](Cc1ccccc1)NC(=O)[C@H](CC(N)=O)NC(=O)c1ccc2ccccc2n1)C(=O)NC(C)(C)C (relative stereo) [Example 7, [1S-[1R*(R*),2S*]]-N^1-[3-[[[(1,1-dimethylethyl)amino]carbonyl](3-methylbutyl)amino]-2-hydroxy-1-(phenylmethyl)propyl]-2-[(2-quinolinylcarbonyl)amino]-butanediamide]",,1 ng/mL,,12 ng/mL
"CC(C)(C)NC(=O)[C@@H]1CC2CCCC[C@@H]2CN1C[C@@H](O)[C@H](Cc1ccccc1)NC(=O)[C@H](CC(N)=O)NC(=O)c1ccc2ccccc2n1 (stereo in doubt) [Example 6, N-tert-Butyl decahydro-2-[2(R)-hydroxy-4-phenyl-3(S)-[[N-(2-quinolylcarbonyl)-L-asparaginyl]amino]butyl]-(4aR,8aS)-isoquinoline-3(S)-carboxamide]",2 ng/mL,,6 ng/mL,
"CNCC(=O)N[C@H](C(=O)N[C@@H](Cc1ccccc1)[C@H](O)CN(CCC(C)C)C(=O)NC(C)(C)C)C(C)(C)C [Example 2, (2R,3S)-3-(N-methylaminoacetyl-L-tert-butylglycinyl)amino-1-(N-isoamyl-N-(tert-butylcarbamoyl))amino-4-phenyl-2-butanol]",2 ng/mL,,872 ng/mL,395 ng/mL
"CC(C)(C)NC(=O)[C@@H]1CN(Cc2cccnc2)CCN1C[C@@H](O)C[C@@H](Cc1ccccc1)C(=O)N[C@H]1c2ccccc2C[C@H]1O [Example 5, N-(2(R)-Hydroxy-1(S)-indanyl)-2(R)-phenylmethyl-4(S)-hydroxy-5-(1-(4-(3-pyridylmethyl)-2(S)-N′-(t-butylcarboxamido)-piperazinyl))-pentaneamide]",4 ng/mL,,38 ng/mL,5 ng/mL
"CC(C)CN(C[C@@H](O)[C@H](Cc1ccccc1)NC(=O)[C@H](CC(N)=O)NC(=O)c1ccc2ccccc2n1)S(=O)(=O)NC(C)(C)C [Example 8, N-[3-[N^2-[N^1-(1,1-dimethylethyl)aminosulfonyl]-N^2-(2-methylpropyl)amino]-2R-hydroxy-1S-(phenylmethyl)propyl]-2S-[(2-quinolinylcarbonyl)amino]butanediamide]",,1 ng/mL,,11 ng/mL
